Source: ChEMBL document CHEMBL4304773, “Nitroimidazole-containing compounds and their antibacterial and antitubercular activities” (2019)
≈ marks a conversion by molar mass, not a printed value.

What was measured:
Format in all cases: functional
Pseudomonas aeruginosa [1] = experiment: Antibacterial activity against Pseudomonas aeruginosa
Escherichia coli [2] = experiment: Antibacterial activity against Escherichia coli
Staphylococcus aureus [3] = experiment: Antibacterial activity against Staphylococcus aureus
Bacillus subtilis = experiment: Antibacterial activity against Bacillus subtilis
Candida albicans = experiment: Antifungal activity against Candida albicans
Enterococcus faecalis [4] = experiment: Antibacterial activity against Enterococcus faecalis
Staphylococcus aureus [5] = experiment: Antibacterial activity against methicillin-resistant Staphylococcus aureus N315
Staphylococcus aureus [6] = experiment: Antibacterial activity against Staphylococcus aureus ATCC 25923
Escherichia coli [7] = experiment: Antibacterial activity against Escherichia coli ATCC 25922
Acinetobacter baumannii = experiment: Antibacterial activity against Acinetobacter baumannii
Pseudomonas aeruginosa [8] = experiment: Antibacterial activity against Pseudomonas aeruginosa ATCC 27853
Klebsiella pneumoniae [9] = experiment: Antibacterial activity against Klebsiella pneumoniae
Staphylococcus aureus [10] = experiment: Antibacterial activity against Staphylococcus aureus ATCC 29213
Escherichia coli [11] = experiment: Antibacterial activity against Escherichia coli ATCC 25922 after 24 hrs; conditions: ATCC 25922, 24 h
Staphylococcus aureus [12] = experiment: Antibacterial activity against methicillin-resistant Staphylococcus aureus after 24 hrs
Klebsiella pneumoniae [13] = experiment: Antibacterial activity against Klebsiella pneumoniae after 24 hrs
Pseudomonas aeruginosa [14] = experiment: Antibacterial activity against Pseudomonas aeruginosa after 24 hrs
Staphylococcus aureus [15] = experiment: Antibacterial activity against Staphylococcus aureus ATCC 25923 after 24 hrs; conditions: ATCC 25923, 24 h
Enterococcus faecalis [16] = experiment: Antibacterial activity against Enterococcus faecalis after 24 hrs
Staphylococcus aureus [17] = experiment: Antibacterial activity against Staphylococcus aureus ATCC 29213 after 24 hrs; conditions: ATCC 29213, 24 h
Pseudomonas aeruginosa [18] = experiment: Antibacterial activity against Pseudomonas aeruginosa ATCC 27853 after 24 hrs; conditions: ATCC 27853, 24 h

Row | MIC (Pseudomonas aeruginosa [1]) | MIC (Escherichia coli [2]) | MIC (Staphylococcus aureus [3]) | MIC (Bacillus subtilis) [µg/mL] | MIC (Candida albicans) [µg/mL] | SMILES | MIC (Escherichia coli [11]) [µM] | MIC (Staphylococcus aureus [12]) [µM] | MIC (Klebsiella pneumoniae [13]) [µM] | MIC (Pseudomonas aeruginosa [14]) [µM] | MIC (Staphylococcus aureus [15]) [µM] | MIC (Enterococcus faecalis [16]) [µM] | MIC (Staphylococcus aureus [17]) [µM] | MIC (Pseudomonas aeruginosa [18]) [µM] | other results
1 | 3.12 to 4.56 µg/mL | 3.12 to 4.56 µg/mL | 3.12 to 4.56 µg/mL | 3.12 to 4.56 (≈ 9.47 to 13.8 µM) | – | COc1ccccc1Cc1nnc(Cn2c([N+](=O)[O-])cnc2C)o1 | – | – | – | – | – | – | – | – | –
2 | 0.25 to 0.5 µg/mL | 0.25 to 0.5 µg/mL | 0.25 to 0.5 µg/mL | 0.25 to 0.5 (≈ 0.687 to 1.37 µM) | 0.25 to 0.5 (≈ 0.687 to 1.37 µM) | CC(=O)N1N=C(Cn2c([N+](=O)[O-])cnc2C)OC1c1ccc(Cl)cc1 (stereo not drawn) | – | – | – | – | – | – | – | – | –
3 | 0.25 to 0.5 µg/mL | 0.25 to 0.5 µg/mL | 0.25 to 0.5 µg/mL | 0.25 to 0.5 (≈ 0.728 to 1.46 µM) | 0.25 to 0.5 (≈ 0.728 to 1.46 µM) | CC(=O)N1N=C(Cn2c([N+](=O)[O-])cnc2C)OC1c1ccc(C)cc1 (stereo not drawn) | – | – | – | – | – | – | – | – | –
4 | 0.25 to 0.5 µg/mL | 0.25 to 0.5 µg/mL | 0.25 to 0.5 µg/mL | 0.25 to 0.5 (≈ 0.696 to 1.39 µM) | 0.25 to 0.5 (≈ 0.696 to 1.39 µM) | COc1ccc(C2OC(Cn3c([N+](=O)[O-])cnc3C)=NN2C(C)=O)cc1 (stereo not drawn) | – | – | – | – | – | – | – | – | –
5 | 0.25 to 0.5 µg/mL | 0.25 to 0.5 µg/mL | 0.25 to 0.5 µg/mL | 0.25 to 0.5 (≈ 0.67 to 1.34 µM) | 0.25 to 0.5 (≈ 0.67 to 1.34 µM) | COc1ccc(C2(C)OC(Cn3c([N+](=O)[O-])cnc3C)=NN2C(C)=O)cc1 (stereo not drawn) | – | – | – | – | – | – | – | – | –
6 | 0.25 to 0.5 µg/mL | 0.25 to 0.5 µg/mL | 0.25 to 0.5 µg/mL | 0.25 to 0.5 (≈ 0.67 to 1.34 µM) | 0.25 to 0.5 (≈ 0.67 to 1.34 µM) | CC(=O)N1N=C(Cn2c([N+](=O)[O-])cnc2C)OC1c1ccc2c(c1)OCO2 (stereo not drawn) | – | – | – | – | – | – | – | – | –
7 | – | – | – | – | – | CCCCCCOc1c(OC)cc(/C=C(\C#N)n2cc([N+](=O)[O-])nc2C)c2c1CN1CCc3cc4c(cc3C1C2)OCO4 (stereo not drawn) | 3 to 1020 (≈ 1.76 to 598 µg/mL) | 3 to 1020 (≈ 1.76 to 598 µg/mL) | 3 to 1020 (≈ 1.76 to 598 µg/mL) | 3 to 1020 (≈ 1.76 to 598 µg/mL) | 3 to 1020 (≈ 1.76 to 598 µg/mL) | 3 to 1020 (≈ 1.76 to 598 µg/mL) | 3 to 1020 (≈ 1.76 to 598 µg/mL) | 3 to 1020 (≈ 1.76 to 598 µg/mL) | –
8 | 0.25 to 0.5 µg/mL | 0.25 to 0.5 µg/mL | 0.25 to 0.5 µg/mL | 0.25 to 0.5 (≈ 0.668 to 1.34 µM) | 0.25 to 0.5 (≈ 0.668 to 1.34 µM) | CC(=O)N1N=C(Cn2c([N+](=O)[O-])cnc2C)OC1c1ccc([N+](=O)[O-])cc1 (stereo not drawn) | – | – | – | – | – | – | – | – | –
9 | – | – | – | – | – | CCCCCCCCOc1c(OC)cc(/C=C(\C#N)n2cc([N+](=O)[O-])nc2C)c2c1CN1CCc3cc4c(cc3C1C2)OCO4 (stereo not drawn) | 3 to 1020 (≈ 1.84 to 627 µg/mL) | 3 to 1020 (≈ 1.84 to 627 µg/mL) | 3 to 1020 (≈ 1.84 to 627 µg/mL) | 3 to 1020 (≈ 1.84 to 627 µg/mL) | 3 to 1020 (≈ 1.84 to 627 µg/mL) | 3 to 1020 (≈ 1.84 to 627 µg/mL) | 3 to 1020 (≈ 1.84 to 627 µg/mL) | 3 to 1020 (≈ 1.84 to 627 µg/mL) | –
10 | – | – | – | – | – | C=CCOc1c(OC)cc(/C=C(\C#N)n2cc([N+](=O)[O-])nc2C)c2c1CN1CCc3cc4c(cc3C1C2)OCO4 (stereo not drawn) | 3 to 1020 (≈ 1.62 to 553 µg/mL) | 3 to 1020 (≈ 1.62 to 553 µg/mL) | 3 to 1020 (≈ 1.62 to 553 µg/mL) | 3 to 1020 (≈ 1.62 to 553 µg/mL) | 3 to 1020 (≈ 1.62 to 553 µg/mL) | 3 to 1020 (≈ 1.62 to 553 µg/mL) | 3 to 1020 (≈ 1.62 to 553 µg/mL) | 3 to 1020 (≈ 1.62 to 553 µg/mL) | –
11 | – | – | – | – | – | COc1cc(/C=C(\C#N)n2cc([N+](=O)[O-])nc2C)c2c(c1OCc1ccc(Cl)cc1)CN1CCc3cc4c(cc3C1C2)OCO4 (stereo not drawn) | 3 to 1020 (≈ 1.88 to 639 µg/mL) | 3 to 1020 (≈ 1.88 to 639 µg/mL) | 3 to 1020 (≈ 1.88 to 639 µg/mL) | 3 to 1020 (≈ 1.88 to 639 µg/mL) | 3 to 1020 (≈ 1.88 to 639 µg/mL) | 3 to 1020 (≈ 1.88 to 639 µg/mL) | 3 to 1020 (≈ 1.88 to 639 µg/mL) | 3 to 1020 (≈ 1.88 to 639 µg/mL) | –
12 | – | – | – | – | – | COc1cc(/C=C(\C#N)n2cc([N+](=O)[O-])nc2C)c2c(c1OCc1ccccc1Cl)CN1CCc3cc4c(cc3C1C2)OCO4 (stereo not drawn) | 3 to 1020 (≈ 1.88 to 639 µg/mL) | 3 to 1020 (≈ 1.88 to 639 µg/mL) | 3 to 1020 (≈ 1.88 to 639 µg/mL) | 3 to 1020 (≈ 1.88 to 639 µg/mL) | 3 to 1020 (≈ 1.88 to 639 µg/mL) | 3 to 1020 (≈ 1.88 to 639 µg/mL) | 3 to 1020 (≈ 1.88 to 639 µg/mL) | 3 to 1020 (≈ 1.88 to 639 µg/mL) | –
13 | – | – | – | – | – | COc1cc(/C=C(\C#N)n2cc([N+](=O)[O-])nc2C)c2c(c1OCC(C)=O)CN1CCc3cc4c(cc3C1C2)OCO4 (stereo not drawn) | 3 to 1020 (≈ 1.67 to 569 µg/mL) | 3 to 1020 (≈ 1.67 to 569 µg/mL) | 3 to 1020 (≈ 1.67 to 569 µg/mL) | 3 to 1020 (≈ 1.67 to 569 µg/mL) | 3 to 1020 (≈ 1.67 to 569 µg/mL) | 3 to 1020 (≈ 1.67 to 569 µg/mL) | 3 to 1020 (≈ 1.67 to 569 µg/mL) | 3 to 1020 (≈ 1.67 to 569 µg/mL) | –
14 | – | – | 184 µM | – | – | Cc1nc([N+](=O)[O-])cn1Cc1nn(CN2CCNCC2)c(=S)o1 | – | – | – | – | – | – | – | – | –

Row | SMILES | MIC (Pseudomonas aeruginosa [1]) | MIC (Escherichia coli [2]) | MIC (Staphylococcus aureus [3]) | MIC (Bacillus subtilis) [µg/mL] | MIC (Candida albicans) [µg/mL] | MIC (Escherichia coli [11]) [µM] | MIC (Staphylococcus aureus [12]) [µM] | MIC (Klebsiella pneumoniae [13]) [µM] | MIC (Pseudomonas aeruginosa [14]) [µM] | MIC (Staphylococcus aureus [15]) [µM] | MIC (Enterococcus faecalis [16]) [µM] | MIC (Staphylococcus aureus [17]) [µM] | MIC (Pseudomonas aeruginosa [18]) [µM] | other results
15 | Cc1ncc([N+](=O)[O-])n1CC(O)CN1C(=O)c2cccc3c(N4CCCC4)ccc(c23)C1=O (stereo not drawn) | 69 to 1140 µM | 69 to 1140 µM | – | – | – | – | – | – | – | – | – | – | – | MIC (Enterococcus faecalis [4]): 69 to 1140 µM (≈ 31 to 512 µg/mL); MIC (Staphylococcus aureus [5]): 69 to 1140 µM (≈ 31 to 512 µg/mL); MIC (Staphylococcus aureus [6]): 69 to 1140 µM (≈ 31 to 512 µg/mL); MIC (Escherichia coli [7]): 69 to 1140 µM (≈ 31 to 512 µg/mL); MIC (Acinetobacter baumannii): 69 to 1140 µM (≈ 31 to 512 µg/mL); MIC (Pseudomonas aeruginosa [8]): 69 to 1140 µM (≈ 31 to 512 µg/mL); MIC (Klebsiella pneumoniae [9]): 69 to 1140 µM (≈ 31 to 512 µg/mL); MIC (Staphylococcus aureus [10]): 69 to 1140 µM (≈ 31 to 512 µg/mL)
16 | Cc1ncc([N+](=O)[O-])n1CC(O)CN1C(=O)c2cccc3c(N4CCNCC4)ccc(c23)C1=O (stereo not drawn) | 69 to 1140 µM | 69 to 1140 µM | – | – | – | – | – | – | – | – | – | – | – | MIC (Enterococcus faecalis [4]): 69 to 1140 µM (≈ 32 to 530 µg/mL); MIC (Staphylococcus aureus [5]): 69 to 1140 µM (≈ 32 to 530 µg/mL); MIC (Staphylococcus aureus [6]): 69 to 1140 µM (≈ 32 to 530 µg/mL); MIC (Escherichia coli [7]): 69 to 1140 µM (≈ 32 to 530 µg/mL); MIC (Acinetobacter baumannii): 69 to 1140 µM (≈ 32 to 530 µg/mL); MIC (Pseudomonas aeruginosa [8]): 69 to 1140 µM (≈ 32 to 530 µg/mL); MIC (Klebsiella pneumoniae [9]): 69 to 1140 µM (≈ 32 to 530 µg/mL); MIC (Staphylococcus aureus [10]): 69 to 1140 µM (≈ 32 to 530 µg/mL)
17 | Cc1ncc([N+](=O)[O-])n1CC(O)CN1C(=O)c2cccc3c(N4CCOCC4)ccc(c23)C1=O (stereo not drawn) | 69 to 1140 µM | 69 to 1140 µM | – | – | – | – | – | – | – | – | – | – | – | MIC (Enterococcus faecalis [4]): 69 to 1140 µM (≈ 32.1 to 531 µg/mL); MIC (Staphylococcus aureus [5]): 69 to 1140 µM (≈ 32.1 to 531 µg/mL); MIC (Staphylococcus aureus [6]): 69 to 1140 µM (≈ 32.1 to 531 µg/mL); MIC (Escherichia coli [7]): 69 to 1140 µM (≈ 32.1 to 531 µg/mL); MIC (Acinetobacter baumannii): 69 to 1140 µM (≈ 32.1 to 531 µg/mL); MIC (Pseudomonas aeruginosa [8]): 69 to 1140 µM (≈ 32.1 to 531 µg/mL); MIC (Klebsiella pneumoniae [9]): 69 to 1140 µM (≈ 32.1 to 531 µg/mL); MIC (Staphylococcus aureus [10]): 69 to 1140 µM (≈ 32.1 to 531 µg/mL)
